Results on 72 compounds are retold here after the RepoRT retention time repository.

This data set in a line: Waters SunFire C18, 150 × 2.1 mm, 3.5 µm, 25 °C, 0.25 mL/min, estimated dead time 1.3 min; A: water + 0.1% formic acid; B: methanol; gradient (min/%B) 0/5 30/100. The note with it: stereoisomer not certain.

Structures are written as SMILES.

On to `COC(=O)C1C(O)CCC2CN3CCc4c([nH]c5cc(OC)ccc45)C3CC21` (configuration not stated), for which the LC retention time was 14.1 min. Then `CC=C1CN2C3CC1C(CO)(C(=O)OC)C2Cc1c3n(C)c2ccccc12` (configuration not stated), with 14.2 min; and `CC=C1CN2C(C3=CC4C5CC6N(CCC67c6ccccc6N(C3=O)C47)CC5=CC)CC34c5ccccc5N5C(=O)CC=C(C1CC23)C54` (configuration not stated), with 16 min. As for `CC=C1CN2CCC3=C([NH2+]c4ccccc43)C2CC1C(Cc1cn2c(c3nc4ccccc4c1-3)CC1C(C(=O)OC)=COC(C)C1C2)C(=O)OC` (configuration not stated), the figure is 18.2 min; as for `CC=C1CN2CCc3c([nH]c4ccc(O)cc34)C2CC1CCO` (configuration not stated), 11.7 min; as for `CC=C1CN2C3CC1C1(C(=O)OC)C2CC2(c4ccccc4N(C)C32)C1OC(=O)C=Cc1cc(OC)c(OC)c(OC)c1` (configuration not stated), 17.8 min. Then `CC=C1CN2CCc3c([nH]c4ccccc34)C2CC1Cc1nccc2c1[nH]c1ccc(O)cc12` (configuration not stated), with 16.6 min. Consider `COC(=O)C1CC23CCCN4CCC5(c6ccccc6N(C(=O)OC)C15CC2)C43` (configuration not stated), for which the LC retention time was 26.9 min.

On to `CCC1CC2CN3CCc4c([nH]c5ccc(OC)cc45)C(C(=O)OC)(C2)C13` (configuration not stated), for which the LC retention time was 16.8 min. Then `CC=C1CN2CCC34Cc5cc6c7c([nH]c6cc5OC35C2CC1C(C(=O)OC)N5c1ccccc14)CCC1(CC)CCCN(CC7)C1` (configuration not stated), with 14.7 min; and `CCC1CN(C)CC2(C(=O)OC)Cc3c([nH]c4ccccc34)C(=O)CC12` (configuration not stated), with 15 min.

Consider `CCC12C=CCN3CCc4c(n(c5ccccc45)C(O)(C(=O)OC)C1)C32` (configuration not stated), for which the LC retention time is 13 min. As for `C=CC1CN2CCC3(C(=O)Nc4cc(O)ccc43)C2CC1CC1c2[nH]c3ccccc3c2CCN1C` (configuration not stated), the figure is 11.9 min; as for `CCC1CC2CN3CCc4c([nH]c5cc(OC)c(OC)cc45)C(C(=O)OC)(C2)C13` (configuration not stated), 16.3 min; as for `CC=C1CN(C)CCC23C(=O)CC1C1COC(O)C(=O)N(c4ccccc42)C13` (configuration not stated), 12.1 min. As for `CC=C1C[N+]2([O-])CCC34Cc5cc6c(cc5OC35C2CC1C(C(=O)OC)N5c1ccccc14)NC12CCC3(CC)CCC[N+]1(CCC62O)C3` (configuration not stated), the figure is 13.4 min; as for `CCC1CN2CCC3(C(=O)Nc4ccccc43)C2CC1C(=COC)C(=O)OC` (configuration not stated), 16.4 min.

For `CC=C1CN2CCC3(O)c4ccccc4N4C=C(C(=O)OC)C1CC2C43O` (configuration not stated), the LC retention time was 16.5 min. Take `CCC1CC2CN3CCc4c([nH]c5ccccc45)C(C(=O)OC)(C2)C13` (configuration not stated): the LC retention time was 16.9 min. As for `CCC1CC2CC3c4[nH]c5ccccc5c4CCN(C2)C13` (configuration not stated), the figure is 15.3 min. As for `CCC1CC2CC3c4[nH]c5cc(OC)ccc5c4CCN(C2)C13` (configuration not stated), the figure is 18.6 min; as for `COc1ccc2[nH]c3c(c2c1)CCN1CC2CC3C1C(C(C)O)C2` (configuration not stated), 14.9 min. In the case of `CC=C1CN2CCC34c5cc(O)ccc5N(C)C35OCC4(C(=O)OC)C1CC25` (configuration not stated), the LC retention time was 14.3 min. As for `CC=C1CN(C)CC2(C(=O)OC)Cc3c([nH]c4ccccc34)C(=O)CC12` (configuration not stated), the figure is 14.3 min; as for `CC=C1CN2CCC34c5ccccc5N5C(=O)C(C6CC78c9ccccc9N9C(=O)C=CC(C%10CC7N6CC%10=CC)C98)=CC(C1CC23)C54` (configuration not stated), 15.3 min; as for `CC=C1C[N+]2(C)CCC34c5ccccc5NC32C(O)CC1C4(CO)C(=O)OC` (configuration not stated), 13.4 min. Then `O=C1CC2OCC=C3CN4CCC56c7ccccc7N1C5C2C3CC46` (configuration not stated), with 11 min; and `CC=C1C[N+]2(C)C3CC1C(C(=O)[O-])C2Cc1c3[nH]c2ccccc12` (configuration not stated), with 15.6 min; and `C=CC12CN(C)C3C4COC(CC41)C1(C(=O)Nc4ccccc41)C32` (configuration not stated), with 9.75 min. Turning to `CC=C1C[N+]2(C)CCc3c4n(c5ccccc35)C(CO)C1CC42` (configuration not stated), the LC retention time was 14.8 min.

For `COC(=O)C1CC23C=CCN4CCC5(c6ccccc6NC15C2C)C43` (configuration not stated), the LC retention time was 13.5 min. As for `COc1cc2c(cc1OC)C13CCN(C)CC45OC4COC4CC(=O)N2C1C4C5CC3=O` (configuration not stated), the figure is 10.1 min.

On to `CCC12C=CCN3CCC4(C(=C(C(=O)OC)C1)Nc1ccccc14)C32` (configuration not stated), for which the LC retention time was 18.2 min. Then `COC(=O)C1=COC(C)C2CN3CCC4(C(=O)Nc5cc(OC)c(OC)cc54)C3CC12` (configuration not stated), with 15.8 min; and `C=CC(CO)C1CC[N+]2(C)CCc3c([nH]c4ccccc34)C2C1` (configuration not stated), with 14.2 min. As for `CC1OCC2C3CC(=O)C4(CCN(C)CC13)c1ccccc1NC24` (configuration not stated), the figure is 15.9 min. With `COC(=O)C1=COC(C)C2CN3CCc4c([nH]c5cc(OC)c(OC)cc45)C3CC12` (configuration not stated), the LC retention time is 17 min. Consider `CCC1(O)C(=O)OCc2c1cc1n(c2=O)Cc2cc3ccccc3nc2-1` (configuration not stated), for which the LC retention time is 27.2 min. As for `C=CC1C(OC2OC(CO)C(O)C(O)C2O)OC2OC3CNC4CC1C2(C(=O)OC)C41Nc2ccccc2C31` (configuration not stated), the figure is 10.3 min; as for `COC(=O)C1CC23CCCN4C(=O)CC5(c6ccccc6N(C)C15CC2)C43` (configuration not stated), 15.1 min.

As to `CC=C1C[n+]2ccc3c([nH]c4ccccc43)c2CC1CCO` (configuration not stated), the LC retention time was 16.7 min. As for `C=CC1CN2CCC1CC2C(O)c1ccnc2ccc(OC)cc12` (configuration not stated), the figure is 13.7 min; as for `C=CC1C(OC2OC(CO)C(O)C(O)C2O)OC=C(C(=O)OC)C1CC1NCCc2c1[nH]c1ccccc21` (configuration not stated), 17 min. As for `CN1CCC23C(=O)CC4C(=CCOC5CC(=O)N(c6ccccc62)C3C54)C1` (configuration not stated), the figure is 13.6 min; as for `CCC1CN2CCc3c([nH]c4ccccc34)C2CC1CC=O` (configuration not stated), 14.4 min. Then `CCC1CN2CCc3c([nH]c4ccccc34)C2CC1CCO` (configuration not stated), with 14.1 min; and `C=C1C2CC(=O)c3[nH]c4ccccc4c3C1N(C)CC2=CC` (configuration not stated), with 14.2 min; and `CCC1=C(CC(=O)OC)C(O)(c2nccc3c2[nH]c2ccccc23)OC1=O` (configuration not stated), with 23.2 min. As to `CC=C1CN2C3CC1C(C=O)C2Cc1c3[nH]c2ccccc12` (configuration not stated), the LC retention time is 14.7 min.

As to `C=CC1CN2CCC1CC2c1[nH]c2ccccc2c1CCO` (configuration not stated), the LC retention time was 16.7 min. Turning to `C=C1c2[nH]c3ccccc3c2CN2CCC1C(=CC)C2` (configuration not stated), the LC retention time was 9.26 min. `CC=C1CN2C3CC1C(CO)(C(=O)OC)C2Cc1c3[nH]c2ccccc12` (configuration not stated): the LC retention time was 12.9 min.

In the case of `CCC1CN2CCc3c([nH]c4cc(OC)c(OC)cc34)C2CC1CCO` (configuration not stated), the LC retention time is 16.6 min. As to `O=c1c2cncc3c2c(c2n1CCc1c-2[nH]c2ccccc12)C=C3`, the LC retention time is 22.1 min. As for `CC1OCC2C3CC4(O)N(CCC45c4ccccc4N(C(=O)CO)C25)CC13` (configuration not stated), the LC retention time is 11.8 min. As for `CCC1CN2CCc3c([nH]c4ccccc34)C2CC1Cc1nccc2c1[nH]c1ccccc12` (configuration not stated), the figure is 14.5 min. As for `COC(=O)C1C(O)CCC2CN3CCc4c([nH]c5ccc(C)cc45)C3CC21` (configuration not stated), the LC retention time was 28.8 min. Regarding `O=C1CC=C2C3CC4N(CCC45c4ccccc4N1C25)CC3=CCO` (configuration not stated), the LC retention time was 12.1 min.

With `CC=C1CN2C(C3=CC4C5CC6N(CCC67c6ccccc6N(C3=O)C47)CC5=CCO)CC34c5ccccc5N5C(=O)CC=C(C1CC23)C54` (configuration not stated), the LC retention time is 15.3 min. For `CC=C1CN2CCC34C(=O)c5cc6c(cc5OC35C2CC1C(C(=O)OC)N5c1ccccc14)NC12CCC3(CC)CCC[N+]1(CCC62O)C3` (configuration not stated), the LC retention time is 13.8 min.

On to `CC=C1CN2C(C3C(=O)N4c5ccccc5C56CCN7CC8=CCOC3C(C8CC75)C46)CC34c5ccccc5N5C(=O)C=CC(C1CC23)C54` (configuration not stated), for which the LC retention time is 16.3 min. As for `CC=C1CN2CCC34c5cc(-c6cc7c(cc6OC)C68CCN9CC(=CC)C(CCC96N7C)C8C(=O)OC)c(OC)cc5N(C)C3C2CC1C4C(=O)OC` (configuration not stated), the figure is 16.9 min. Consider `C=CC1CN2CCC3(C(=O)Nc4c3ccc(O)c4C3CCCN3C)C2CC1CC1c2[nH]c3ccccc3c2CCN1C` (configuration not stated), for which the LC retention time is 8.71 min.

With `COC(=O)C1=COC(C)C2Cn3ccc4c5ccccc5nc-4c3CC12` (configuration not stated), the LC retention time is 13.2 min. As for `COc1cc2c(cc1OC)C13CCN4CC5=CCOC6CC(=O)N2C1C6C5CC43` (configuration not stated), the LC retention time was 12.9 min. As for `CC=C1CN2CCc3c4n(c5ccccc35)C(C(=O)OC)C1CC42` (configuration not stated), the figure is 17.5 min.

Take `CCC1C2CCN3CCC4(C(=C2C(=O)OC)Nc2ccccc24)C13` (configuration not stated): the LC retention time is 13.7 min.

Consider `C=CC12C=CCN3CCC4(c5ccccc5NC(=O)C4C1)C32` (configuration not stated), for which the LC retention time was 11.7 min. As for `CC=C1CN2C(C3C(=O)N4c5ccccc5C56CCN7CC8=CCOC3C(C8CC75)C46)CC34c5ccccc5N5C(=O)CC=C(C1CC23)C54` (configuration not stated), the figure is 15.6 min. Regarding `CC=C1CN2CCC34C(=C(C(=O)OC)C1CC23)Nc1ccccc14` (configuration not stated), the LC retention time is 11.1 min. As for `c1ccc2c(c1)NC13CCC4(CCCN5CCC21C54)CC3` (configuration not stated), the LC retention time was 19.5 min. Then `COC(=O)N1c2ccc(OC)cc2C23CCN4C(=O)C=CC45CCC12C3C5` (configuration not stated), with 28.1 min.
